Like-named read-outs stand apart in the source and are kept apart here.

Results on 13 compounds are retold here after patent publication US20120115896A1, “ISOGENIC HUMAN CELL LINES COMPRISING MUTATED CANCER ALLELES AND PROCESS USING THE CELL LINES” (priority 2008, published 2012).

For assay [1], the system named is hTERT-HME1 cells carrying KRAS (G13D) KI. As to the kind of experiment: Drug assay: cell viability by ATP content (96 h), KI versus parental cells; ΔKI pharmarray analysis.
The test system of assay [2] is hTERT-HME1 cells carrying EGFR (delE746-A750) KI. Put plainly: Drug assay: cell viability by ATP content (CellTiter-Glo, 96 h), KI versus parental cells; ΔKI pharmarray analysis.
The test system of assay [3] is hTERT-HME1 cells carrying BRAF (V600E) KI. Put plainly: Drug assay: cell viability by ATP content (96 h), KI versus parental cells; ΔKI pharmarray analysis.
Assay [4] concerns hTERT-HME1 DKI cells carrying PIK3CA (H1047R) and EGFR (delE746-A750). As to the kind of experiment: Drug assay: cell viability by ATP content (96 h), DKI versus parental cells; ΔKI pharmarray analysis.
For assay [5], the system named is hTERT-HME1 cells carrying PIK3CA (E545K and H1047R) KI. As to the kind of experiment: Drug assay: cell viability by ATP content (96 h) and Hoechst/propidium iodide staining, KI versus parental cells; ΔKI pharmarray analysis.

For the compound `c1cc(-c2cnn3cc(-c4ccc(OCCN5CCCCC5)cc4)cnc23)ccn1` [Compound C], the “ΔKI KRAS” value in assay [1] and in assay [1] (Log(M) −4.70) was 0 in each case. For the same compound, the “ΔKI EGFR” value in assay [2] and in assay [2] (Log(M) −4.70) was 0 each time. Besides, the “ΔKI BRAF” value in assay [3] and in assay [3] (Log(M) −4.70) was 0 throughout. The “ΔKI PIK3CA + EGFR” value in assay [4] and in assay [4] (Log(M) −4.70) was 0 in each case. The “ΔKI PIK3CA” value in assay [5] and in assay [5] (Log(M) −4.70) was 0 each time.
For the compound `COc1ccc(-c2cc(=O)c3c(O)c(OC)c(O)cc3o2)cc1OC` [Eupatiline], the “ΔKI KRAS” value in assay [1] and in assay [1] (Log(M) −3.97) was 0 each time. Also, the “ΔKI EGFR” value in assay [2] and in assay [2] (Log(M) −3.97) was 0 each time. Moreover, the “ΔKI BRAF” value in assay [3] is given as −0.1; in assay [3] (Log(M) −3.97) it was 2.9. The “ΔKI PIK3CA + EGFR” value in assay [4] and in assay [4] (Log(M) −3.97) was 0 each time. For the same compound, the “ΔKI PIK3CA” value is on record as −1.66 in assay [5] and 0 in assay [5] (Log(M) −3.97).
In the case of `COc1ccc2c(c1)c(CC(=O)N1CCOCC1)c(C)n2C(=O)c1ccc(Cl)cc1` [IMMA (BML-190)], the “ΔKI KRAS” value in assay [1] and in assay [1] (Log(M) −3.90) was 0 in each case. Moreover, the “ΔKI EGFR” value in assay [2] and in assay [2] (Log(M) −3.90) was 0 in each case. Also, the “ΔKI BRAF” value in assay [3] and in assay [3] (Log(M) −3.90) was 0 in each case. Besides, the “ΔKI PIK3CA + EGFR” value in assay [4] and in assay [4] (Log(M) −3.90) was 0 each time. Moreover, the “ΔKI PIK3CA” value in assay [5] amounted to 0; in assay [5] (Log(M) −3.90), 0.72.
Consider `CCCn1c(C)c(C(=O)c2cccc3ccccc23)c2ccccc21` [JWH-015], for which the “ΔKI KRAS” value in assay [1] and in assay [1] (Log(M) −3.55) was 0 each time. Moreover, the “ΔKI EGFR” value in assay [2] and in assay [2] (Log(M) −3.55) was 0 in each case. Moreover, the “ΔKI BRAF” value in assay [3] and in assay [3] (Log(M) −3.55) was 0 throughout. The “ΔKI PIK3CA + EGFR” value in assay [4] and in assay [4] (Log(M) −3.55) was 0 each time. Further, the “ΔKI PIK3CA” value in assay [5] and in assay [5] (Log(M) −3.55) was 0 each time.
With `CCCCC/C=C\C/C=C\C/C=C\C/C=C\CCC(C)C(=O)NCCF` (centres unmarked) [Met-F-AEA], the “ΔKI KRAS” value in assay [1] is recorded as 0. For the same compound, the “ΔKI EGFR” value in assay [2] came to 0. Besides, in assay [3] (listed as OGC-079), the “ΔKI BRAF” value is 0.3. In addition, the “ΔKI PIK3CA + EGFR” value in assay [4] came to 0. For the same compound, the “ΔKI PIK3CA” value in assay [5] is given as 0.
Consider `CCCCCCCCCCCCCCCCCCOCC(COC(=O)OC1C(O)C(O)C(O)C(CO)C1O)OC` [OGC-023, 1L6-Hydroxymethyl-chiro-inositol-2-(R)-2-O-methyl-3-O-octadecyl-sn-glycerocarbonate], for which the “ΔKI KRAS” value in assay [1] (Log(M) −4.14), in assay [1] (Log(M) −4.62) and in assay [1] (Log(M) −5.10) was 0 throughout. Besides, the “ΔKI EGFR” value in assay [2] (Log(M) −4.14), in assay [2] (Log(M) −4.62) and in assay [2] (Log(M) −5.10) was 0 each time. Moreover, the “ΔKI BRAF” value in assay [3] (Log(M) −4.14), in assay [3] (Log(M) −4.62) and in assay [3] (Log(M) −5.10) was 0 throughout. In addition, the “ΔKI PIK3CA + EGFR” value in assay [4] (Log(M) −4.14) was 0; in assay [4] (Log(M) −4.62), 3.32; in assay [4] (Log(M) −5.10), 2.4. Moreover, the “ΔKI PIK3CA” value in assay [5] (Log(M) −4.14), in assay [5] (Log(M) −4.62) and in assay [5] (Log(M) −5.10) was 0 each time.
In the case of `O=C1CCC(N2C(=O)c3ccccc3C2=O)C(=O)N1` (centres unmarked) [OGC-065], the “ΔKI KRAS” value in assay [1], in assay [1] (Log(M) −2.05) and in assay [1] (Log(M) −3.35) was 0 throughout. Moreover, the “ΔKI EGFR” value in assay [2] is listed as 0; in assay [2] (Log(M) −2.05) it was 0; in assay [2] (Log(M) −3.35), −0.68. Besides, the “ΔKI BRAF” value in assay [3], in assay [3] (Log(M) −2.05) and in assay [3] (Log(M) −3.35) was 0 throughout. Further, the “ΔKI PIK3CA + EGFR” value was 0 in assay [4] (Log(M) −2.05) and −0.8 in assay [4] (Log(M) −3.35). Further, the “ΔKI PIK3CA” value in assay [5] came to 0; in assay [5] (Log(M) −2.05), 1.9; in assay [5] (Log(M) −3.35) it was 0.
For the compound `COc1cccc(-c2cc(=O)c3ccccc3o2)c1N` [PD 98059], the “ΔKI KRAS” value in assay [1] (Log(M) −3.57), in assay [1] (Log(M) −4.05) and in assay [1] (Log(M) −4.52) was 0 each time. Also, the “ΔKI EGFR” value was 0 in assay [2] (Log(M) −3.57), 3.5 in assay [2] (Log(M) −4.05) and 0 in assay [2] (Log(M) −4.52). In addition, the “ΔKI BRAF” value amounted to 0 in assay [3] (Log(M) −3.57), 0 in assay [3] (Log(M) −4.05) and 4 in assay [3] (Log(M) −4.52). The “ΔKI PIK3CA + EGFR” value in assay [4] (Log(M) −3.57), in assay [4] (Log(M) −4.05) and in assay [4] (Log(M) −4.52) was 0 each time. The “ΔKI PIK3CA” value in assay [5] (Log(M) −3.57), in assay [5] (Log(M) −4.05) and in assay [5] (Log(M) −4.52) was 0 throughout.
Regarding `CC[C@H](C)C(=O)O[C@H]1C[C@H](O)C=C2C=C[C@H](C)[C@H](CC[C@@H](O)C[C@@H](O)CC(=O)[O-])[C@H]21.[Na+]` [Pravastatin Na], the “ΔKI KRAS” value in assay [1] (Log(M) −4.32), in assay [1] (Log(M) −4.92) and in assay [1] (Log(M) −5.52) was 0 in each case. For the same compound, the “ΔKI EGFR” value in assay [2] (Log(M) −4.32), in assay [2] (Log(M) −4.92) and in assay [2] (Log(M) −5.52) was 0 in each case. In addition, the “ΔKI BRAF” value in assay [3] (Log(M) −4.32), in assay [3] (Log(M) −4.92) and in assay [3] (Log(M) −5.52) was 0 each time. Moreover, the “ΔKI PIK3CA + EGFR” value in assay [4] (Log(M) −4.32), in assay [4] (Log(M) −4.92) and in assay [4] (Log(M) −5.52) was 0 throughout. For the same compound, the “ΔKI PIK3CA” value in assay [5] (Log(M) −4.32) and in assay [5] (Log(M) −5.52) was 0 in each case.
As for `COC(=O)C1=CC[C@@]23CC[C@@H]([C@@](C)(/C=C/C=C(\C)C(=O)O)OC2=O)[C@@]3(OC(C)=O)CC1` [Pseudolaric Acid B], the “ΔKI KRAS” value in assay [1] and in assay [1] (Log(M) −6.48) was 0 throughout. Besides, the “ΔKI EGFR” value in assay [2] and in assay [2] (Log(M) −6.48) was 0 each time. Besides, the “ΔKI BRAF” value in assay [3] (Log(M) −6.48) was 0. In assay [4] (Log(M) −6.48), the “ΔKI PIK3CA + EGFR” value was determined as 0.54. In addition, the “ΔKI PIK3CA” value in assay [5] and in assay [5] (Log(M) −6.48) was 0 in each case.
On to `CCCCCc1cc(O)c2c(c1)OC(C)(C)[C@@H]1CCC(C)=C[C@@H]21` [THC], for which, in assay [1], the “ΔKI KRAS” value was found to be 0. Also, the “ΔKI EGFR” value in assay [2] is reported as 0. Also, the results for the “ΔKI BRAF” value in assay [3], in assay [3] (Log(M) −4.60) and in assay [3] (listed as OGC-089) were 0.3, 0.46 and 0.88, respectively. Further, the “ΔKI PIK3CA + EGFR” value in assay [4] came to 0. Moreover, the “ΔKI PIK3CA” value in assay [5] was determined as 0.
As for `O=C([O-])C[C@H](O)C[C@H](O)/C=C/c1c(C2CC2)nc2ccccc2c1-c1ccc(F)cc1.O=C([O-])C[C@H](O)C[C@H](O)/C=C/c1c(C2CC2)nc2ccccc2c1-c1ccc(F)cc1.[Ca+2]` [itavastatin, Itavastatin Ca], in assay [1], the “ΔKI KRAS” value came out at 0. In assay [2], the “ΔKI EGFR” value was 0. The results for the “ΔKI BRAF” value in assay [3] and in assay [3] (listed as OGC-072) were 0 and −7.2, respectively. Moreover, the “pharmarray: differential response of BRAF mutated cells versus WT” value in assay [3] (hTERT-HME1, FIG. 5H) is recorded as “more resistant”. Further, the “ΔKI PIK3CA + EGFR” value in assay [4] came out at 0. For the same compound, in assay [5], the “ΔKI PIK3CA” value was found to be 0.
For the compound Erybraedin C, the “ΔKI KRAS” value in assay [1] and in assay [1] (Log(M) −4.70) was 0 in each case. The “ΔKI EGFR” value in assay [2] and in assay [2] (Log(M) −4.70) was 0 in each case. The “ΔKI BRAF” value in assay [3] and in assay [3] (Log(M) −4.70) was 0 throughout. In addition, the “ΔKI PIK3CA + EGFR” value in assay [4] (Log(M) −4.70) was determined as 0.38. For the same compound, the “ΔKI PIK3CA” value in assay [5] and in assay [5] (Log(M) −4.70) was 0 throughout.
